Test results taken from patent publication US20080242683A1, “Organic Compounds” (priority 2005, published 2008).
Where a name gives a salt, the structure may show the parent alone.

The molecules below were run against adenosine A2A receptor (Homo sapiens, UniProt P29274) (assay: adenosine A2A receptor agonist assay (method of Murphree et al.)). Conditions: Mol Pharmacol 61, 455-462 (2002).
Format: binding
Text: Compounds of formula (I) and their pharmaceutically acceptable salts are useful as pharmaceuticals. In particular, they activate the adenosine A2A receptor, i.e., they act as A2A receptor agonists.

Chain of adenosine A2A receptor (P29274 whole entry): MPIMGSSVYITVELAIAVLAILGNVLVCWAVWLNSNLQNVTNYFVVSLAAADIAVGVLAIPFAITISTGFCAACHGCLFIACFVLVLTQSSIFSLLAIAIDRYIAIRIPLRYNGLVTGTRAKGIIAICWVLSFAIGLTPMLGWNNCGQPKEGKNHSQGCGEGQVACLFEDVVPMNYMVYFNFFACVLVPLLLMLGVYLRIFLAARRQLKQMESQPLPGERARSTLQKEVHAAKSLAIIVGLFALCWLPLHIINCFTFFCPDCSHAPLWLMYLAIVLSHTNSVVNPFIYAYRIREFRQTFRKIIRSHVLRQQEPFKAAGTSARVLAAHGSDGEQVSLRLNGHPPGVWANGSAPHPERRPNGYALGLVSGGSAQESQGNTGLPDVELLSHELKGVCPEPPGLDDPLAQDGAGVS

| Structure (SMILES) | Ki |
| --- | --- |
| OC[C@H]1O[C@@H](n2cnc3c(NCC(c4ccccc4)c4ccccc4)nc(N4CC[C@H](c5ccc(F)cc5)C4)nc32)[C@H](O)[C@@H]1O [Example 2, (2R,3R,4S,5R)-2-{6-(2,2-diphenyl-ethylamino)-2-[(R)-3-(4-fluoro-phenyl)-pyrrolidin-1-yl]-purin-9-yl}-5-hydroxymethyl-tetrahydro-furan-3,4-diol trifluoroacetate] | 610 nM |
| N[C@@H]1CCN(c2nc(NCC(c3ccccc3)c3ccccc3)c3ncn([C@@H]4O[C@H](CO)[C@@H](O)[C@H]4O)c3n2)C1 [Example 7, (2R,3R,4S,5R)-2-[2-((R)-3-Amino-pyrrolidin-1-yl)-6-(2,2-diphenyl-ethylamino)-purin-9-yl]-5-hydroxymethyl-tetrahydro-furan-3,4-diol trifluoroacetate] | 190 nM |
| O=C(NC1CCN(c2ccccn2)CC1)N[C@@H]1CCN(c2nc(NCC(c3ccccc3)c3ccccc3)c3ncn([C@@H]4O[C@H](CO)[C@@H](O)[C@H]4O)c3n2)C1 [Example 9, 1-{(R)-1-[9-((2R,3R,4S,5R)-3,4-Dihydroxy-5-hydroxymethyl-tetrahydro-furan-2-yl)-6-(2,2-diphenyl-ethylamino)-9H-purin-2-yl]-pyrrolidin-3-yl}-3-(3,4,5,6-tetrahydro-2H-[1,2′]bipyridinyl-4-yl)-urea trifluoroacetate] | 160 nM |
| O=C(N[C@@H]1CCNC1)N[C@@H]1CCN(c2nc(NCC(c3ccccc3)c3ccccc3)c3ncn([C@@H]4O[C@H](CO)[C@@H](O)[C@H]4O)c3n2)C1 [Example 11, 1-{(R)-1-[9-((2R,3R,4S,5R)-3,4-Dihydroxy-5-hydroxymethyl-tetrahydro-furan-2-yl)-6-(2,2-diphenyl-ethylamino)-9H-purin-2-yl]-pyrrolidin-3-yl}-3-(R)-pyrrolidin-3-yl-urea trifluoroacetate] | 12 nM |
| OC[C@H]1O[C@@H](n2cnc3c(NCC(c4ccccc4)c4ccccc4)nc(N4CC[C@@H](O)C4)nc32)[C@H](O)[C@@H]1O [Example 13, (2R,3R,4S,5R)-2-[6-(2,2-diphenyl-ethylamino)-2-((R)-3-hydroxy-pyrrolidin-1-yl)-purin-9-yl]-5-hydroxymethyl-tetrahydro-furan-3,4-diol] | 54 nM |
| CN(C)[C@@H]1CCN(c2nc(NCC(c3ccccc3)c3ccccc3)c3ncn([C@@H]4O[C@H](CO)[C@@H](O)[C@H]4O)c3n2)C1 [Example 22, (2R,3R,4S,5R)-2-[2-((R)-3-dimethylamino-pyrrolidin-1-yl)-6-(2,2-diphenyl-ethylamino)-purin-9-yl]-5-hydroxymethyl-tetrahydro-furan-3,4-diol trifluoroacetate] | 0.5 nM |
| O=C(N[C@@H]1CCN(C(=O)NC2CCN(C(=O)OCc3ccccc3)CC2)C1)N[C@@H]1CCN(c2nc(NCC(c3ccccc3)c3ccccc3)c3ncn([C@@H]4O[C@H](CO)[C@@H](O)[C@H]4O)c3n2)C1 [Example 24, 4-{[(R)-3-(3-{(R)-1-[9-((2R,3R,4S,5R)-3,4-Dihydroxy-5-hydroxymethyl-tetrahydro-furan-2-yl)-6-(2,2-diphenyl-ethylamino)-9H-purin-2-yl]-pyrrolidine-3-yl}-ureido)-pyrrolidine-1-carbonyl]-amino}-piperidine-1-carboxylic acid benzyl ester trifluoroacetate] | 59 nM |
| CCc1cc([C@H]2O[C@@H](n3cnc4c(N[C@H](CO)Cc5ccccc5)nc(N5CC[C@@H](N6CCCC6)C5)nc43)[C@H](O)[C@@H]2O)on1 [Example 65, (2R,3R,4S,5S)-2-[(R)-2-[1,3′]Bipyrrolidinyl-1′-yl-6-((S)-1-hydroxymethyl-2-phenyl-ethylamino)-purin-9-yl]-5-(3-ethyl-isoxazol-5-yl)-tetrahydro-furan-3,4-diol] | 2 nM |
| CCn1nnc(C2OC(n3cnc4c(NCC(c5ccc(O)cc5)c5ccc(O)cc5)nc(N5CCC(NC(=O)c6ccc(N7CCOCC7)nc6)C5)nc43)C(O)C2O)n1 [Example 77, N—((R)-1-{6-[2,2-bis-(4-Hydroxy-phenyl)-ethylamino]-g-[(2R,3R,4S,5R)-5-(2-ethyl-2H-tetrazol-5-yl)-3,4-dihydroxy-tetrahydro-furan-2-yl]-9H-purin-2-yl}-pyrrolidin-3-yl)-6-morpholin-4-yl-nicotinamide trifluoroacetate] | 6 nM |
| CCn1nnc([C@H]2O[C@@H](n3cnc4c(NCCc5ccc(S(N)(=O)=O)cc5)nc(N5CC[C@@H](NC(=O)N[C@@H]6CCNC6)C5)nc43)[C@H](O)[C@@H]2O)n1 [Example 108, 4-(2-{9-[(2R,3R,4S,5R)-5-(2-Ethyl-2H-tetrazol-5-yl)-3,4-dihydroxy-tetrahydro-furan-2-yl]-2-[(R)-3-((R)-3-pyrrolidin-3-ylureido)-pyrrolidin-1-yl]-9H-purin-6-ylamino}-ethyl)-benzenesulfonamide trifluoroacetate] | 5 nM |
| CCn1nnc([C@H]2O[C@@H](n3cnc4c(NCC(c5ccccc5)c5ccccc5)nc(N5CC[C@@H](NC(=NCc6ccccn6)NC#N)C5)nc43)[C@H](O)[C@@H]2O)n1 [Example 122, N—((R)-1-{6-(2,2-Diphenyl-ethylamino)-9-[(2R,3R,4S,5R)-5-(2-ethyl-2H-tetrazol-5-yl)-3,4-dihydroxy-tetrahydro-furan-2-yl]-9H-purin-2-yl}-pyrrolidin-3-yl)-N′-cyano-N″-pyridin-2-ylmethyl-guanidine] | 4 nM |
